Test results reported in US6737383B1, “Herbicidal oxadiazolidines” (priority 1999, dated 2004).

Key:
blackgrass = test: Test B pre/postemergence blackgrass; type: in vivo, Alopecurus myosuroides
Procedure, shortened: (§1)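 Herbicidal effect was estimated by eye on a ten-point control scale after plants spent twelve to sixteen days in a greenhouse following soil or foliar treatment. Foliar sprays targeted plants at one to four leaves; all doses were formulated in a non-phytotoxic solvent with surfactant.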

cocklebur = test: Test B pre/postemergence cocklebur; type: in vivo, Xanthium strumarium
Procedure, shortened: as §1

corn = test: Test B pre/postemergence corn; type: in vivo, Zea mays
Procedure, shortened: as §1

crabgrass = test: Test B pre/postemergence crabgrass; type: in vivo, Digitaria sanguinalis
Procedure, shortened: as §1

giant foxtail = test: Test B pre/postemergence giant foxtail; type: in vivo, Setaria faberii
Procedure, shortened: as §1

morningglory = test: Test B pre/postemergence morningglory; type: in vivo, Ipomoea hederacea
Procedure, shortened: as §1

pigweed = test: Test B pre/postemergence pigweed; type: in vivo, Amaranthus retroflexus
Procedure, shortened: as §1

rape = test: Test B pre/postemergence rape; type: in vivo, Brassica napus
Procedure, shortened: as §1

soybean = test: Test B pre/postemergence soybean; type: in vivo, Glycine max
Procedure, shortened: as §1

sugar beet = test: Test B pre/postemergence sugar beet; type: in vivo, Beta vulgaris
Procedure, shortened: as §1

velvetleaf = test: Test B pre/postemergence velvetleaf; type: in vivo, Abutilon theophrasti
Procedure, shortened: as §1

wheat = test: Test B pre/postemergence wheat; type: in vivo, Triticum aestivum
Procedure, shortened: as §1

purple nutsedge = test: Test B pre/postemergence purple nutsedge; type: in vivo, Cyperus rotundus
Procedure, shortened: as §1

rice = test: Test B flood test rice; type: in vivo, Oryza sativa
Procedure, shortened: (§2)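 Flood test on plants grown to the 2-leaf stage; treated plants kept in greenhouse twelve to sixteen days, then visually rated against controls on a 0 (no effect) to 10 (complete control) scale.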

smallflower flatsedge = test: Test B flood test smallflower flatsedge; type: in vivo, Cyperus difformis
Procedure, shortened: as §2

duck salad = test: Test B flood test duck salad; type: in vivo, Heteranthera limosa
Procedure, shortened: as §2

[1] = Postemergence, Rate 62 g/ha, scale 0 to 10, 0 is no effect, 10 is complete control
[2] = Postemergence, Rate 125 g/ha, scale of 0 to 10 where 0 is no effect and 10 is complete control
[3] = Postemergence, Rate 250 g/ha, scale of 0 to 10, 0 is no effect, 10 is complete control
[4] = Postemergence, Rate 500 g/ha, scale of 0 to 10 where 0 is no effect and 10 is complete control
[5] = Preemergence, Rate 62 g/ha, scale 0 to 10 (0 no effect, 10 complete control)
[6] = Preemergence, Rate 125 g/ha, scale of 0 to 10 where 0 is no effect and 10 is complete control
[7] = Preemergence, Rate 500 g/ha, scale of 0 to 10 where 0 is no effect and 10 is complete control
[8] = Rate 62 g/ha, flood test species, Pre-emergence, visual evaluation after twelve to sixteen days
[9] = Rate 125 g/ha, under heading Pre-emergence, flood test species, visual evaluation after twelve to sixteen days
[10] = Rate 250 g/ha, Pre-emergence (flood test species), scale 0 to 10, 0 is no effect, 10 is complete control
[11] = Rate 500 g/ha, Pre-emergence section of Table B, 0 to 10 scale (0 no effect, 10 complete control)

CCC(C)n1c(=O)on(C(=O)N(c2ccccc2)C(C)C)c1=O (stereo not shown) [Compound 612]
Plant response rating, Blackgrass (blackgrass; [1]): 7 | Plant response rating, Blackgrass (blackgrass; [2]): 9 | Blackgrass plant response rating (blackgrass; [3]): 9 | Plant response rating, Blackgrass (blackgrass; [4]): 10 | Blackgrass plant response rating (blackgrass; [5]): 8 | Blackgrass plant response rating (blackgrass; [6]): 10 | Blackgrass plant response rating (0 to 10 scale) (blackgrass; Preemergence, Rate 250 g/ha): 10 | Blackgrass plant response rating (blackgrass; [7]): 10 | Plant response rating, Cocklebur (cocklebur; [1]): 0 | Plant response rating, Cocklebur (cocklebur; [2]): 0 | Cocklebur plant response rating (cocklebur; [3]): 0 | Plant response rating, Cocklebur (cocklebur; [4]): 2 | Cocklebur plant response rating (cocklebur; [5]): 0 | Cocklebur plant response rating (cocklebur; [6]): 0 | Cocklebur plant response rating (0 to 10 scale) (cocklebur; Preemergence, Rate 250 g/ha): 0 | Plant response rating, Cocklebur (cocklebur; [7]): 0 | Plant response rating, Corn (corn; [1]): 0 | Plant response rating, Corn (corn; [2]): 0 | Corn plant response rating (corn; [3]): 0 | Plant response rating, Corn (corn; [4]): 0 | Corn plant response rating (corn; [5]): 0 | Corn plant response rating (corn; [6]): 3 | Corn plant response rating (0 to 10 scale) (corn; Preemergence, Rate 250 g/ha): 8 | Plant response rating, Corn (corn; [7]): 9 | Plant response rating, Crabgrass (crabgrass; [1]): 4 | Plant response rating, Crabgrass (crabgrass; [2]): 8 | Crabgrass plant response rating (crabgrass; [3]): 9 | Plant response rating, Crabgrass (crabgrass; [4]): 10 | Crabgrass plant response rating (crabgrass; [5]): 10 | Crabgrass plant response rating (crabgrass; [6]): 10 | Plant response rating, Crabgrass (crabgrass; [7]): 10 | Plant response rating, Giant foxtail (giant foxtail; [1]): 7 | Plant response rating, Giant foxtail (giant foxtail; [2]): 9 | Giant foxtail plant response rating (giant foxtail; [3]): 9 | Plant response rating, Giant foxtail (giant foxtail; [4]): 9 | Giant foxtail plant response rating (giant foxtail; [5]): 10 | Giant foxtail plant response rating (giant foxtail; [6]): 10 | Plant response rating, Giant foxtail (giant foxtail; [7]): 10 | Plant response rating, Morningglory (morningglory; [1]): 5 | Plant response rating, Morningglory (morningglory; [2]): 8 | Morningglory plant response rating (morningglory; [3]): 8 | Plant response rating, Morningglory (morningglory; [4]): 10 | Morningglory plant response rating (morningglory; [5]): 0 | Morningglory plant response rating (morningglory; [6]): 0 | Plant response rating, Morningglory (morningglory; [7]): 10 | Plant response rating, Redroot pigweed (pigweed; [1]): 0 | Plant response rating, Redroot pigweed (pigweed; [2]): 2 | Redroot pigweed plant response rating (pigweed; [3]): 4 | Plant response rating, Redroot pigweed (pigweed; [4]): 7 | Redroot pigweed plant response rating (pigweed; [5]): 8 | Redroot pigweed plant response rating (pigweed; [6]): 10 | Plant response rating, Redroot pigweed (pigweed; [7]): 10 | Plant response rating, Rape (rape; [1]): 0 | Plant response rating, Rape (rape; [2]): 0 | Rape plant response rating (rape; [3]): 0 | Plant response rating, Rape (rape; [4]): 7 | Rape plant response rating (rape; [5]): 0 | Rape plant response rating (rape; [6]): 3 | Plant response rating, Rape (rape; [7]): 10 | Plant response rating, Soybean (soybean; [1]): 4 | Plant response rating, Soybean (soybean; [2]): 5 | Soybean plant response rating (soybean; [3]): 7 | Plant response rating, Soybean (soybean; [4]): 8 | Soybean plant response rating (soybean; [5]): 0 | Soybean plant response rating (soybean; [6]): 0 | Plant response rating, Soybean (soybean; [7]): 3 | Plant response rating, Sugarbeets (sugar beet; [1]): 0 | Plant response rating, Sugarbeets (sugar beet; [2]): 0 | Sugarbeets plant response rating (sugar beet; [3]): 0 | Plant response rating, Sugarbeets (sugar beet; [4]): 1 | Sugarbeets plant response rating (sugar beet; [5]): 3 | Sugarbeets plant response rating (sugar beet; [6]): 5 | Plant response rating, Sugarbeets (sugar beet; [7]): 7 | Plant response rating, Velvetleaf (velvetleaf; [1]): 2 | Plant response rating, Velvetleaf (velvetleaf; [2]): 3 | Velvetleaf plant response rating (velvetleaf; [3]): 3 | Plant response rating, Velvetleaf (velvetleaf; [4]): 6 | Velvetleaf plant response rating (velvetleaf; [5]): 6 | Velvetleaf plant response rating (velvetleaf; [6]): 7 | Plant response rating, Velvetleaf (velvetleaf; [7]): 8 | Plant response rating, Wheat (wheat; [1]): 0 | Plant response rating, Wheat (wheat; [2]): 2 | Wheat plant response rating (wheat; [3]): 2 | Plant response rating, Wheat (wheat; [4]): 5 | Wheat plant response rating (wheat; [5]): 0 | Wheat plant response rating (wheat; [6]): 3 | Plant response rating, Wheat (wheat; [7]): 8 | Plant response rating, Nutsedge (purple nutsedge; [1]): 0 | Plant response rating, Nutsedge (purple nutsedge; [2]): 0 | Nutsedge plant response rating (purple nutsedge; [3]): 0 | Plant response rating, Nutsedge (purple nutsedge; [4]): 2 | Nutsedge plant response rating (purple nutsedge; [5]): 0 | Nutsedge plant response rating (purple nutsedge; [6]): 0 | Plant response rating, Nutsedge (purple nutsedge; [7]): 3 | Plant response rating, Rice (0 to 10 scale, 0 is no effect, 10 is complete control) (rice; [8]): 0 | Rice plant response rating (0 to 10 scale, 0 is no effect, 10 is complete control) (rice; [9]): 0 | Rice plant response rating (rice; [10]): 0 | Rice plant response rating (rice; [11]): 0 | Plant response rating, S. Flatsedge (0 to 10 scale, 0 is no effect, 10 is complete control) (smallflower flatsedge; [8]): 0 | S. Flatsedge plant response rating (0 to 10 scale, 0 is no effect, 10 is complete control) (smallflower flatsedge; [9]): 0 | S. Flatsedge plant response rating (smallflower flatsedge; [10]): 0 | S. Flatsedge plant response rating (smallflower flatsedge; [11]): 0 | Plant response rating, Ducksalad (0 to 10 scale, 0 is no effect, 10 is complete control) (duck salad; [8]): 0 | Ducksalad plant response rating (0 to 10 scale, 0 is no effect, 10 is complete control) (duck salad; [9]): 0 | Ducksalad plant response rating (duck salad; [10]): 0 | Ducksalad plant response rating (duck salad; [11]): 0
